Laboratory results taken from patent US10561666B2, “Amido compounds as RORγt modulators and uses thereof” (New York University, priority 2010, dated 2020).

How the values were obtained:
RORγt = RORγt (Mus musculus, UniProt P51450, T352K); test: RORγt S2 cell Gal4-luciferase reporter assay; details: for Emax: read-out: Efficacy (%)
From the text: Methods: The Drosophila S2 cell line was originally purchased from Invitrogen and was maintained in Schneider's medium supplemented with 10% heat-inactivated bovine fetal calf serum and antibiotics (Invitrogen). […] The resulting chimeric gene was subcloned into the copper inducible pMT/V5-His A vector (available from Invitrogen).
In order to generate stable cell lines, cells were co-transfected with pMT-G4DBD-RORγt, pMT-G4DBD-RORα, pMT-G4DBD-DHR3, or pMT-G4DBDVP16 and pHygro plasmids (Invitrogen) and screened for resistant colonies in the presence of hygromycin (0.3 mg/mL).
Methods: 600 G4DBD-RORγ/γt-luc reporter (#25) or G4DBD-VP16-luc reporter cells were distributed into each well of 1,536-well white bottom plates in 4 μl S2 cell culture volume containing hygromicin (300 μg/ml) and puromycin (2 μg/ml). […] After one-hour incubation, 1 μl of culture medium solution containing copper sulfate (to final 0.7 mM) and 10 μM RORγ/γt antagonists were added to each well. After 20-hour incubation at ambient temperature, 1.5 μl firefly luciferase detection mix was added and the luciferase activities were measured in 10 min. ViewLux luminometers were used for measuring luciferase signal.
Since their cognate DNA binding sites were not well characterized, the DNA binding domains (DBD) of RORγ/γt, RORα (mouse homolog for POPγ), and DHR3 (Drosophila orthologue for ROR family proteins) were replaced with the heterologous yeast GAL4 DBD. The transcriptionally active domain of general transcriptional activator VP16 was also fused with GAL4 DBD. The GAL4 fusion constructs were placed under the control of a copper inducible promoter, and stable S2 cell lines with genomic integration of these four reporter constructs were generated. The copper inducible promoter ensures tight regulation of GAL4-fusion protein expression and it allows small molecules to get into the cells prior to protein induction, thus increasing their effects on GAL4 reporters. The stable reporter cell lines also encode the firefly luciferase reporter, whose expression is regulated by five copies of the GAL4 binding site enhancer (UAS), along with the pol III-driven Renilla luciferase reporter.
A cell-based reporter assay was used to detect RORγt-mediated activity. This assay, called RORγt□ employed Drosophila Schneider cells that were stably transfected with two vectors: a gene expressing a fusion of the Gal4 DNA binding domain and RORγt transactivation domain under the control of the metallothionine promoter and a Photinus luciferase reporter regulated by the Gal4 binding site enhancer, UAS. […] Cells (600/well) were dispensed into white solid 1536-well plates (Greiner) using a solenoid-based dispenser. Following transfer of 23 nL compound or DMSO vehicle by a pin tool, the plates were incubated 1 hr at ambient temperature, and 1 uL/well copper sulfate (700 uM final concentration) was added. The plates were centrifuged 15 s at 1000 RPM and incubated 20 hr at ambient temperature. After addition of 1.5 uL Photinus luciferase detection reagent, the plates were incubated 10 min at ambient temperature and then read by a ViewLux (Perkin Elmer) to detect luminescence. […] Efficacy is expressed as % of the maximal response of control inhibitor (Digoxin), set at 100%.

mouse Th17 polarization = test: Mouse Th17 polarization assay (IL-17a producing cells); assay type: cell-based; details: for IC50: naive mouse CD4 T cells, TGFβ and IL6, compounds added Day 1, analyzed Day 4, IL-17a producing cells, read-out: Th 17 IC50
Protocol: Effects of compound derivatives at various concentrations on mouse Th17 polarization. Percentage of DMSO treated IL-17a producing cells was set at 100. Naive mouse CD4 T cells (CD25^−, CD62L^+, and CD44^int-high) were sorted and cultured with CD3/CD28 stimulatory antibodies in the presence of TGFβ (0.1 ng/ml) and IL6 (20 ng/ml). Compounds were added on Day 1 and cells were analyzed on Day 4. For intracellular cytokine staining, cells were incubated for 5 h with phorbol ester (50 ng/ml; Sigma), ionomycin (500 ng/ml; Sigma) and GolgiStop (BD). When needed, surfaces were stained by incubation for 15 min on ice with PECy7-conjugated CD4 (BD Biosciences). The Cytofix/Cytoperm buffer set (BD) was used for intracellular staining. Cells were fixed and made permeable for 30 min on ice and were stained for 30 min on ice in permeabilization buffer with Alexa647-conjugated anti-IL17 (eBioscience) and PE-conjugated anti-IFNg (eBioscience). An LSR II (BD Biosciences) and FlowJo software (Tree Star) were used for flow cytometry. RORg IC50 value acquired from the S2 cell reporter assay is listed for comparison.
(§1) Naive CD4 T cells (CD25^−, CD62L^+, and CD44^int-high) were sorted and cultured with CD3/CD28 stimulatory antibodies in the presence of TGFβ (0.1 ng/ml) and IL6 (20 ng/ml). Compounds were added on Day 1 and cells were analyzed on Day 4. For intracellular cytokine staining, cells were incubated for 5 h with phorbol ester (50 ng/ml; Sigma), ionomycin (500 ng/ml; Sigma) and GolgiStop (BD). When needed, surfaces were stained by incubation for 15 min on ice with PECy7-conjugated CD4 (BD Biosciences). The Cytofix/Cytoperm buffer set (BD) or FoxP3 staining kit (eBioscience) were used for intracellular staining. Cells were fixed and made permeable for 30 min on ice and were stained for 30 min on ice in permeabilization buffer with Alexa647-conjugated anti-IL17 (eBioscience), PE-conjugated anti-IFNg (eBioscience), and/or PE-conjugated anti-FoxP3 (eBioscience). An LSR II (BD Biosciences) and FlowJo software (Tree Star) were used for flow cytometry.

[1] = molecular target: T1, recombinant human RORγ LBD (Homo sapiens, UniProt P51449); test: In vitro competition assay, fluorescence polarization with labeled 25-hydroxycholesterol; assay type: binding; details: various concentrations
T1 construct: recombinant human RORγ LBD was loaded with fluorescently-labeled 25-hydroxycholesterol
T1 sequence (P51449 269-508 limits assumed): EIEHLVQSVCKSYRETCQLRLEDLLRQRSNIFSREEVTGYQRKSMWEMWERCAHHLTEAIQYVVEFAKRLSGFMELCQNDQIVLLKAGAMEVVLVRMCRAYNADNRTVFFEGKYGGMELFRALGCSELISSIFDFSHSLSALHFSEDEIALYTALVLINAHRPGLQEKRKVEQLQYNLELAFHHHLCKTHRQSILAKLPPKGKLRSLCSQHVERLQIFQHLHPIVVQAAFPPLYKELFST
From the text: The presence of increasing concentrations of NCGC00166547 was correlated with displacement of the fluorescently-labeled 25-hydroxycholesterol from the LBD.

Th1 differentiation = test: Mouse Th1 differentiation counter-screen (IFNγ production); assay type: cell-based; details: 20 μM, naive CD4 T cells, IL12 and IL2 (FIG. 4)
Protocol: as §1
For Th1 differentiation, IL12 (10 ng/ml) and IL2 (10 U) was added to naive CD4 T cell cultures instead of TGFβ and IL6.

[2] = tested on: human Th17 cell differentiation; test: Human Th17 cell differentiation of naive cord blood T cells; assay type: cell-based; details: IL2, IL23, IL1β, TGFβ, six days (FIG. 6B)
Protocol: Flow cytometry of IL-17a and IFN-γ production by cord blood naive CD4^+T cells (CD45RO^−CD45RA^+CD3^+CD4^+CD25^−HLA-DR^−)transduced with RORαd-IRES-GFP or RORγt-IRES-GFP on day 1 and analyzed on day 6. GFP expressing cells were gated for analysis. […] Flow cytometry of IL-17a and IFN-γ production by human naive cord blood T cells (CD45RO^−D45RA^+CD3^+CD4^+CD25^−HLA-DR^−), which were cultured for six days in presence of IL2, IL23 and IL1β, and with various concentrations of TGFβ (ng/ml). DMSO or N2 was added 16 hours after the cytokine addition.
The results depict flow cytometry of IL-17a and IFN-γ production by cord blood naive CD4^+ T cells (CD45RO^−CD45RA^+CD3^+CD4^+CD25^−HLA-DR^−)transduced with human RORαd-IRES-GFP or human RORγt-IRES-GFP on day 1 and analyzed on day 6. GFP expressing cells were gated for analysis. […] The results depict flow cytometry of IL-17a and IFN-γ production by human naive cord blood T cells (CD45RO^−D45RA^+CD3^+CD4^+CD25^−HLA-DR^−), which were cultured for six days in the presence of IL2, IL23 and ILβ, and with various concentrations of TGFβ (ng/mL). […] IL-17a-APC (eBio64CAP17 eBioscience) and IFN-γ-PECy7 (45.B3 eBioscience) were used for analysis.

[3] = tested on: Human memory (CD45RO+CD45RA−CD3+CD4+CCR6+CD161+) cells; test: Human memory Th17 cell maintenance (IL-17a / IFN-γ staining); assay type: cell-based; details: 3 uM, 6 days
From the text: Intracellular staining for IFN-γ or IL-17a in memory CD4^+T cells from multiple donors, assessed on day 6. Each symbol (n=11 or 9, respectively) indicates a separate donor.

[4] = IC50(μM), Drosophila S2 cells, Gal4-RORγt luciferase reporter, 20 hr
[5] = S2 cell RORg IC50 μM, S2 cell reporter assay, listed for comparison

Sequence of RORγt (P51450 with tags, fused parts or gaps T352K): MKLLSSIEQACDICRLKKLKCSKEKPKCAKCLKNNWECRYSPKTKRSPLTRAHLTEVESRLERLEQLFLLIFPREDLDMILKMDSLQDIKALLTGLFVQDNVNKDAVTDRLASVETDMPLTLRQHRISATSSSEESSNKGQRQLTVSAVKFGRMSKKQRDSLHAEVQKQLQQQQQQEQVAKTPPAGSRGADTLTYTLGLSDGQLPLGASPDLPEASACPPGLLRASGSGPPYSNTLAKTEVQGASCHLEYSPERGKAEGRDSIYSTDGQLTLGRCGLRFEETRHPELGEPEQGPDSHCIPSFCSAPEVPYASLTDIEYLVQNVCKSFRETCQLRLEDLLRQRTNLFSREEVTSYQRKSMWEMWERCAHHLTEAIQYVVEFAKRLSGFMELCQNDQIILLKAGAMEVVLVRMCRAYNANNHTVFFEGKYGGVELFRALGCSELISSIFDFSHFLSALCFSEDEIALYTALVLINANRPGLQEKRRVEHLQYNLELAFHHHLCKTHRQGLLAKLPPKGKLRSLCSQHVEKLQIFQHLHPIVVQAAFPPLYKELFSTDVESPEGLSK

| SMILES | IC50 (RORγt; [4]) [µM] | IC50 (RORγt; [5]) [µM] | Emax (RORγt) [%] | IC50 (mouse Th17 polarization) [µM] | binding to human RORγt (displacement of fluorescently-labeled 25-hydroxycholesterol) [1] | mouse Th17 cell differentiation, as measured by IL17a production (mouse Th17 polarization; 20 μM, compared to DMSO treated cells, FACS (FIG. 3)) | Th1 differentiation, as measured by IFNγ production (Th1 differentiation) | concentration at which human Th17 cell differentiation is inhibited [2] [µM] | IL-17a expression in human memory Th17 cells ([3]; multiple donors, IL-17a+IFN-γ+/−, p=0.02 (FIG. 7)) | IL-17a−IFN-γ+ memory CD4+ T cells, with versus without compound ([3]; two-tailed unpaired Student's t test (FIG. 7)) |
| --- | --- | --- | --- | --- | --- | --- | --- | --- | --- | --- |
| COCOc1cc(OC)cc(OC)c1C(CC(=O)N1CC(C)CC(C)C1)c1ccc2c(c1)OCO2 (stereo not drawn) [Compound 135] | 1 to 10 | 1 to 10 | 96.5 | 1 to 10 |  |  |  |  |  |  |
| COc1cc(OC)c(C(CC(=O)N2CC(C)CC(C)C2)c2ccc3c(c2)OCO3)c(OCC#N)c1 (stereo not drawn) [Compound 136] | 1 to 10 | 1 to 10 | 90 | 1 to 10 |  |  |  |  |  |  |
| COc1cc(OC)c(C(CC(=O)N2CC(C)CC(C)C2)c2ccc3c(c2)OCO3)c(OCC(N)=O)c1 (stereo not drawn) [Compound 137] | 11 to 50 | 11 to 20 | 98.5 | > 20 |  |  |  |  |  |  |
| COc1cc(O)c(C(CC(=O)N2CCCC(C)C2)c2ccc3c(c2)OCO3)c(OC)c1 (stereo not drawn) [NCGC00166547] |  |  |  |  | directly bind to human RORγt | suppress mouse Th17 cell differentiation | does not inhibit Th1 differentiation |  |  |  |
| COc1cc(O)c(C(CC(=O)N2C[C@H](C)C[C@H](C)C2)c2ccc3c(c2)OCO3)c(OC)c1 (stereo partly drawn) [NCGC00238427] |  |  |  |  |  |  |  | ≤ 1 | inhibits human Th17 cell memory cells expression of IL-17a | not significant |
